Data published in PMC8840081, “Phenylalanine-Based AMPA Receptor Antagonist as the Anticonvulsant Agent with Neuroprotective Activity—In Vitro and In Vivo Studies” (Molecules, 2022).
Where “and” joins values, the source holds several entries; their conditions need not be identical. Identical values can stand only once.

Assays:
[1] = test system: tactile allodynia in oxaliplatin-treated mice; assay: oxaliplatin-induced neuropathic pain model, von Frey test; assay type: in vivo; settings: 10 and 30 mg/kg i.p., early and late phase
Protocol: (§1) Behavioral experiments were carried out in male Albino Swiss (CD-1) mice weighing 18–22 g. The mice were kept in cages, in groups of 10 animals. They had free access to food and water before experiments, and were maintained at room temperature 22–24 °C, under 12:12 (light/dark) cycle. For the assays the animals were selected randomly. After the experiments the animals were euthanized by cervical dislocation. Experimental procedures for in vivo tests were approved by the Local Ethics Committee of the Jagiellonian University in Krakow (Approval No. 33/2018; release date: 1.02.2018) and the treatment of animals was performed in full accordance with ethical standards laid down in respective Polish and EU regulations (Directive 2010/63/EU).
Oxaliplatin was purchased from Activate Scientific GmbH (Prien, Germany). PTZ and STZ were provided by Merck KGaA (Darmstadt, Germany). For the in vivo tests, the compound 1 was suspended in 1% Tween 80 solution (Polskie Odczynniki Chemiczne, Gliwice, Poland), then being administered intraperitoneally 1 h before tests. For the evaluation of anticonvulsant properties of the test compound, a fixed dose of 100 mg/kg, was used. Since many AEDs at lower doses are used as analgesic drugs, for pain tests the doses 10 and 30 mg/kg were selected. […]

[2] = test system: electrically induced seizures in mice; assay: maximal electroshock (MES) test; assay type: in vivo; settings: 100 mg/kg i.p.
Protocol: as §1
Oxaliplatin was purchased from Activate Scientific GmbH (Prien, Germany). PTZ and STZ were provided by Merck KGaA (Darmstadt, Germany). For the in vivo tests, the compound 1 was suspended in 1% Tween 80 solution (Polskie Odczynniki Chemiczne, Gliwice, Poland), then being administered intraperitoneally 1 h before tests. For the evaluation of anticonvulsant properties of the test compound, a fixed dose of 100 mg/kg, was used. Since many AEDs at lower doses are used as analgesic drugs, for pain tests the doses 10 and 30 mg/kg were selected.
MES test was performed as described previously. […]

[3] = ferric reducing antioxidant power (FRAP) assay; settings: % of ascorbic acid activity; compounds and AA at 1 mM
Protocol: The total antioxidant potential of aryl-substituted phenylalanine derivatives was determined using FRAP assay. The FRAP reagent was prepared first by mixing acetate buffer (300 mM, pH 3.6), a solution of 10 mM TPTZ (2,4,6-tripyridyl-s-triazine, Sigma-Aldrich, Inc., St. Louis, MO, USA) in 40 mM HCl and 20 mM of iron (III) chloride hexahydrate (FeCl3 × 6H2O, Chempur, Piekary Śląskie, Poland) at 10:1:1 (v/v/v). The FRAP reagent (190 μL) and 1 mM of tested compound (10 μL) was added next to each well, mixed and incubated for 30 min. The absorbance was measured using a microplate reader EnSpire (PerkinElmer, Waltham, MA USA) at 593 nm. AA (1 mM, AMARA, Kraków, Poland) was used as the reference antioxidant. The results were expressed as % of ascorbic acid activity (%AAA). Analyses were performed in triplicate. • ORAC-FL

SMILES: NC(Cc1cc(-c2cc(O)ccc2O)c(Cl)c([N+](=O)[O-])c1)C(=O)O (stereo not shown) [Compound 1]
- effect on tactile allodynia, von Frey test [1]: not effective
- Mortality rate (%) [2]: 25%
- X/Y, number of mice protected (X) per number of mice tested (Y) ([2]; 1 h before test): 0/4
- FRAP (%AAA) [3]: 748.5 %AAA and 748.49 %AAA
